From patent publication US8846947B2, “Benzimidazoles and related analogs as sirtuin modulators” (GlaxoSmithKline LLC, priority 2008, dated 2014)
Like-named read-outs stand apart in the source and are kept apart here.

Biological target: T1, SIRT1 (Homo sapiens, UniProt Q96EB6)
T1 sequence (Q96EB6 1-747): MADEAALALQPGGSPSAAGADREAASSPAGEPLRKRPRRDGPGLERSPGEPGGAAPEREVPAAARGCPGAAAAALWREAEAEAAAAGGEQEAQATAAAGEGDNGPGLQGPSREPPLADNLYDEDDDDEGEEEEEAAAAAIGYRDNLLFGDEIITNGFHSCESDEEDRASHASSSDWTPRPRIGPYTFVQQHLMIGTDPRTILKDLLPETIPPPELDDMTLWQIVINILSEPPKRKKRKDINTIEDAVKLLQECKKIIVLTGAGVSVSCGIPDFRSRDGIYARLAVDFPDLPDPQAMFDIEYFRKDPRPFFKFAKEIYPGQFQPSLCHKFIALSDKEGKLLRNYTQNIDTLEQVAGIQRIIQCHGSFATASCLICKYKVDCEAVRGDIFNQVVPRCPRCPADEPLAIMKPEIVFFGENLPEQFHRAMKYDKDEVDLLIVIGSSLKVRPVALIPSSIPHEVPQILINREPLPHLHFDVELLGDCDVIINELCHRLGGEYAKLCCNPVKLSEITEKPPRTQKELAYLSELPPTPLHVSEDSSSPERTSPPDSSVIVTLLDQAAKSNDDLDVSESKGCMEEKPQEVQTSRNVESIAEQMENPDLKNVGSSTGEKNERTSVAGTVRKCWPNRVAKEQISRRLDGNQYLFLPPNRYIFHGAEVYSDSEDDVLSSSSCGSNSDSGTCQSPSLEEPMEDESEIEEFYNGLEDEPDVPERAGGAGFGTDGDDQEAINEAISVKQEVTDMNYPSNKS
Test: Mass spectrometry based SIRT1 deacetylase activation assay (acetylated p53-derived peptide substrate)
Assay type: biochemical

[1] = 0.5 μM peptide substrate, 120 μM βNAD+, 10 nM SIRT1, 25 minutes at 25° C.
[2] = 0.5 μM peptide substrate, 120 μM βNAD+, 10 nM SIRT1, 25 min at 25° C.
[3] = 0.5 μM peptide substrate, 120 μM βNAD+, 10 nM SIRT1, 25 min at 25° C., read-out: EC1.5

Structure (SMILES)	EC1.5 [1]	Fold Act. (percent maximum fold activation) [1]	Fold Act. (percent maximum fold activation) [2]	EC1.5 [3] [nM]	EC1.5	Fold Act. (percent maximum fold activation)
C[C@@H]1CN(c2cccc(-c3nc4c(C(=O)Nc5ccccn5)cccc4[nH]3)c2)C[C@H](C)O1 [Compound 577]			A (Fold activation >200%)	< 1000		
Cc1cc(Cl)cc(-c2nc3c(C(=O)Nc4ccccn4)cccc3[nH]2)c1OCCN1CCOCC1 [Compound 506]			B (Fold Activation <200%)	1000 to 25000		
O=C(Nc1nccs1)c1cccc2[nH]c(-c3cccc(OC4CCNC4)c3)nc12 (centres unmarked) [Compound 462]			A (Fold activation >200%)	< 1000		
Cc1nc(N2CCOCC2)sc1-c1nc2c(C(=O)Nc3nccs3)cccc2[nH]1 [Compound 411]			A (Fold activation >200%)	< 1000		
c1cncc(CNc2cccc3[nH]c(-c4cccc(N5CCOCC5)c4)nc23)c1 [Compound 619]	B (EC1.5 1-25 uM)	B (Fold Activation <200%)				
O=C(Nc1ccccn1)c1cncc2[nH]c(-c3ccccc3C(F)(F)F)nc12 [Compound 636]	A (EC1.5<1.0 uM)	A (Fold activation >200%)				
Cc1cc(C)nc(NC(=O)c2cccc3[nH]c(-c4cccc(C(F)(F)F)c4)nc23)c1 [Compound 279]					A (EC1.5<1.0 uM)	A (Fold activation >200%)
O=C(Nc1ccccn1)c1cccc2[nH]c(-c3cccc4c3OC(F)(F)O4)nc12 [Compound 496]			A (Fold activation >200%)	< 1000		
Cc1nc(C)c(-c2nc3c(C(=O)Nc4ccncc4)cccc3[nH]2)s1 [Compound 318]					A (EC1.5<1.0 uM)	A (Fold activation >200%)
O=C(Nc1nccs1)c1cccc2[nH]c(-c3cccnc3Cl)nc12 [Compound 245]					B (EC1.5 1-25 uM)	A (Fold activation >200%)
O=C(Nc1nccs1)c1cccc2[nH]c(-c3ccc(F)cc3C(F)F)nc12 [Compound 559, 2-(2-(difluoromethyl)-4-fluorophenyl)-N-(thiazol-2-yl)-1H-benzo[d]imidazole-4-carboxamide]			A (Fold activation >200%)	< 1000		
Cc1noc(C)c1NC(=O)c1cccc2[nH]c(-c3cccc(C(F)(F)F)c3)nc12 [Compound 261]					C (EC1.5 >25 uM)	B (Fold Activation <200%)
O=C(Nc1cccc2[nH]c(-c3cc(F)ccc3C(F)(F)F)nc12)c1cccnc1 [Compound 386]					B (EC1.5 1-25 uM)	A (Fold activation >200%)
CCOC(=O)c1csc(NC(=O)c2cccc3[nH]c(-c4cccc(C(F)(F)F)c4)nc23)n1 [Compound 308]					B (EC1.5 1-25 uM)	A (Fold activation >200%)
O=C(Nc1ccccn1)c1cccc2[nH]c(-c3ccc(OC4CCNC4)cc3)nc12 (centres unmarked) [Compound 442]			A (Fold activation >200%)	< 1000		
Cc1nc(NC(=O)c2cccc3[nH]c(-c4ccc(N5CCOCC5)cc4C(F)(F)F)nc23)sc1C [Compound 589]			A (Fold activation >200%)	< 1000		
O=C(Nc1cccc2[nH]c(-c3ccc(Cl)cc3C(F)(F)F)nc12)c1cnccn1 [Compound 419]			A (Fold activation >200%)	1000 to 25000		
O=C(Nc1nccs1)c1cccc2[nH]c(-c3cc(F)cc(F)c3)nc12 [Compound 213]					B (EC1.5 1-25 uM)	A (Fold activation >200%)
O=C(NCc1ccccn1)c1cccc2[nH]c(-c3ccc(Cl)cc3C(F)(F)F)nc12 [Compound 433]			B (Fold Activation <200%)	1000 to 25000		
CN1CCOc2cc(-c3nc4c(C(=O)Nc5nccs5)cccc4[nH]3)cnc21 [Compound 371]					A (EC1.5<1.0 uM)	A (Fold activation >200%)
O=C(Nc1nccs1)c1cccc2[nH]c(-c3cccc(N4CCOCC4)c3)nc12 [Compound 226]					A (EC1.5<1.0 uM)	A (Fold activation >200%)
O=C(Nc1ccccn1)c1cccc2[nH]c(-c3ccc(F)cc3OCCN3CCOCC3)nc12 [Compound 504]			B (Fold Activation <200%)	1000 to 25000		
O=C(Nc1cnccn1)c1cccc2[nH]c(-c3ccccc3)nc12 [Compound 201]					B (EC1.5 1-25 uM)	A (Fold activation >200%)
O=C(Nc1nccs1)c1cccc2[nH]c(-c3cccc(-c4nnn[nH]4)c3)nc12 [Compound 360]					A (EC1.5<1.0 uM)	A (Fold activation >200%)
CS(=O)(=O)c1cccc(-c2nc3c(C(=O)Nc4nccs4)cccc3[nH]2)c1 [Compound 402]			A (Fold activation >200%)	< 1000		
Cc1cnc(NC(=O)c2cccc3[nH]c(-c4ccc(OC[C@@H](O)CO)cc4C(F)F)nc23)s1 [Compound 595]			A (Fold activation >200%)	< 1000		
Cc1cc(NC(=O)c2cccc3[nH]c(-c4cc(F)ccc4C(F)(F)F)nc23)n(C)n1 [Compound 380]					A (EC1.5<1.0 uM)	A (Fold activation >200%)
CS(=O)(=O)c1ccc(-c2nc3c(C(=O)Nc4cccnc4)cccc3[nH]2)cc1 [Compound 407]			B (Fold Activation <200%)	> 25000		
O=C(Nc1cccnc1)c1cccc2[nH]c(-c3ccccc3C(F)(F)F)nc12 [Compound 243]					A (EC1.5<1.0 uM)	A (Fold activation >200%)

Now from value to compound:

EC1.5 [1]	Fold Act. (percent maximum fold activation) [1]	Fold Act. (percent maximum fold activation) [2]	EC1.5 [3] [nM]	EC1.5	Fold Act. (percent maximum fold activation)	Structure (SMILES)
C (EC1.5 >25 uM)	B (Fold Activation <200%)					C[C@@H]1CN(c2ccc(C(F)(F)F)c(-c3nc4c(C(=O)Nc5ccccn5)cccc4[nH]3)c2)C[C@H](C)O1 [Compound 663]
B (EC1.5 1-25 uM)	A (Fold activation >200%)					O=C(Nc1nccs1)c1cccc2[nH]c(-c3cc(N4CC[C@@H](F)C4)ccc3C(F)(F)F)nc12 [Compound 667]
A (EC1.5<1.0 uM)	A (Fold activation >200%)					O=C(Nc1cccc(OC[C@@H](O)CO)c1)c1cncc2[nH]c(-c3ccc(Cl)cc3C(F)(F)F)nc12 [Compound 738]
A (EC1.5<1.0 uM)	A (Fold activation >200%)					O=C(Nc1ccc(CN2CCCC2)nc1)c1cccc2[nH]c(-c3ccc(Cl)cc3C(F)(F)F)nc12 [Compound 685]
A (EC1.5<1.0 uM)	A (Fold activation >200%)					Cc1nc(C)c(-c2nc3c(C(=O)Nc4cccc(CN5CCOCC5)n4)cccc3[nH]2)s1 [Compound 847]
A (EC1.5<1.0 uM)	A (Fold activation >200%)					O=C(Nc1nccs1)c1cc(N2CCOCC2)cc2[nH]c(-c3cc(F)ccc3C(F)F)nc12 [Compound 768]
A (EC1.5<1.0 uM)	A (Fold activation >200%)					CC1(C)CN(c2ccc(C(F)(F)F)c(-c3nc4c(C(=O)Nc5ccccn5)cccc4[nH]3)c2)CCO1 [Compound 709]
A (EC1.5<1.0 uM)	A (Fold activation >200%)					Cc1cnc(NC(=O)c2cc(F)cc3nc(-c4cc(F)ccc4C(F)F)[nH]c23)s1 [Compound 836]
A (EC1.5<1.0 uM)	A (Fold activation >200%)					O=C(Nc1cccc(CN2CCNCC2)n1)c1cccc2[nH]c(-c3ccccc3C(F)(F)F)nc12 [Compound 682]
A (EC1.5<1.0 uM)	A (Fold activation >200%)					O=C(Nc1cccnn1)c1cncc2[nH]c(-c3ccccc3C(F)(F)F)nc12 [Compound 638]
A (EC1.5<1.0 uM)	A (Fold activation >200%)					O=C(Nc1ccc(OC[C@H](O)CO)cc1)c1cccc2[nH]c(-c3cccc(N4CCCC4)c3)nc12 [Compound 778]
A (EC1.5<1.0 uM)	A (Fold activation >200%)					Cc1nc(C)c(-c2nc3c(C(=O)Nc4ccc(OC[C@H](O)CO)cc4)cccc3[nH]2)s1 [Compound 798]
A (EC1.5<1.0 uM)	A (Fold activation >200%)					O=C(Nc1ccccn1)c1cc(F)cc2nc(-c3ccc(Cl)cc3C(F)F)[nH]c12 [Compound 823]
A (EC1.5<1.0 uM)	A (Fold activation >200%)					O=C(Nc1cccnn1)c1cc(N2CCOCC2)cc2[nH]c(-c3ccc(Cl)cc3C(F)(F)F)nc12 [Compound 643]
